Positions of bridges follow the written chain, without caps; N, C: chain ends. No end group written: not given here.
Legend:
Format in all cases: cell-based
[1] = system: Candida albicans (ATCC14053); assay: Biofilm prevention, crystal violet, 96-well plate; settings: added simultaneously, 24 h, 37° C.
Method: (§1) The peptides depicted in Table 1 (each with a cysteine attached to the N- and C-terminus of the peptides) were synthesized using solid-phase methods and were purified to 90% (Peptron, Inc.; Taejeon, South Korea). The peptides were dissolved in 20 μl dimethyl sulfoxide and diluted in double distilled water to a concentration of 10 mg/ml. Additional dilutions were performed in phosphate buffered saline (PBS).
(§2) The ability of these peptides to prevent microbial adhesion to a surface or detach microbial adhesion from a surface were measured against the following microbial strains: Pseudomonas aeruginosa (ATCC27853), Staphylococcus aureus (ATCC25923), Candida albicans (ATCC14053) and Acinetobacter baumannii (clinical isolate). […]
(§3) Biofilms of the foregoing microorganisms were grown in a 96-well found-bottom polystyrene plate. Specifically, 180 μl of overnight cultures were added to the wells with 20 μl of each peptide diluted in PBS, either simultaneously to measure prevention or after a period of time to measure detachment from 4 hours up to 24 hours post incubation. After 24 hours of incubation at 37° C., each well was washed with water and stained with 250 μl of crystal violet solution. The crystal violet solution was then removed by thoroughly washing the wells with water. To quantify the number of bacteria cells attached to the wells, the crystal violet was solubilized in 250 μl of 1% sodium dodecyl sulfate and the absorbance was measured at 595 nm.
(§4) The ability of these peptides to (1) prevent microbial adhesion to a surface and to (2) detach microbes already adhered to a surface were measured against the following microbial strains: Pseudomonas aeruginosa (ATCC27853), Staphylococcus aureus (ATCC25923), Candida albicans (ATCC14053) and/or Escherichia coli. The resulting percentage of prevention or detachment, relative to control wells in which the microbes was allowed to culture in the absence of peptides, are indicated in FIGS. 13 to 16.

[2] = system: Pseudomonas aeruginosa (ATCC27853); assay: Biofilm prevention, crystal violet, 96-well plate; settings: added simultaneously, 24 h, 37° C.
Method: as §1, §2, §3, §4

[3] = system: Candida albicans (ATCC14053); assay: Biofilm detachment, crystal violet, 96-well plate; settings: peptide 100 ng/ml, added after adhesion
Method: as §1
(§5) The ability of these peptides to prevent microbial adhesion to a surface or detach microbial adhesion from a surface were measured against the following microbial strains: Pseudomonas aeruginosa (ATCC27853), Staphylococcus aureus (ATCC25923), Candida albicans (ATCC14053) and Acinetobacter baumannii (clinical isolate). Specifically, peptides diluted to concentrations of 100 ng/ml were incubated with the foregoing microbes for 24 hours.
as §3, §4

[4] = system: Pseudomonas aeruginosa (ATCC27853); assay: Biofilm detachment, crystal violet, 96-well plate; settings: peptide 100 ng/ml, added after adhesion
Method: as §1, §5, §3, §4

[5] = system: Staphylococcus aureus (ATCC25923); assay: Biofilm detachment, crystal violet, 96-well plate; settings: peptide 100 ng/ml, added after adhesion
Method: as §1, §5, §3, §4

[6] = system: Staphylococcus aureus (ATCC25923); assay: Biofilm prevention, crystal violet, 96-well plate; settings: peptide 100 ng/ml, added simultaneously, 24 h, 37° C.
Method: as §1, §5, §3, §4

[7] = system: Acinetobacter baumannii (clinical isolate); assay: Biofilm prevention, crystal violet, 96-well plate; settings: added simultaneously, 24 h, 37° C.
Method: as §1, §2, §3

[8] = system: Acinetobacter baumannii (clinical isolate); assay: Biofilm detachment, crystal violet, 96-well plate; settings: peptide 100 ng/ml, added after adhesion
Method: as §1, §5, §3

[9] = system: Pseudomonas aeruginosa (ATCC 27853); assay: Detachment of pre-formed biofilm from a well (Examples 1-7); settings: different concentrations
Method: A biofilm was created by incubating Pseudomonas aeruginosa (ATCC 27853) overnight in wells at 37° C., allowing the microorganism to attach to the well surface. Eqt2Z-cyc peptide [Custom Peptide Synthesis; Peptron, Korea] at different concentrations was subsequently added to the wells and allowed to incubate overnight. The P.a. control was Pseudomonas aeruginosa alone.
(§6) A biofilm was created by culturing Pseudomonas aeruginosa (ATCC 27853) for 2 hours in a well at 37° C. Eqt2Z-cyc peptide at different concentrations was subsequently added to the well and allowed to incubate overnight. The Abac10-cyc peptide served as a negative control. The P.a. control was Pseudomonas aeruginosa alone.
as §6, with “for 24 hours.” for “overnight.”, “alone. […] Staining was performed with crystal violet at OD 595 nm.” for “alone.”
A biofilm was created by culturing Pseudomonas aeruginosa (ATCC 27853) for 2 hours in a well at 37° C. grZ14s-nvCyc peptide [Custom Peptide Synthesis; Peptron, Korea] at different concentrations was subsequently added to the well and allowed to incubate for 24 hours. The Abac10-cyc peptide served as a negative control. The P.a. control was Pseudomonas aeruginosa alone. […] Staining was performed with crystal violet at OD 595 nm.
(§7) A biofilm was created by culturing Pseudomonas aeruginosa (ATCC 27853) for 24 hours in a well at 37° C. Eqt2Z-cyc peptide at different concentrations was subsequently added to the well and allowed to incubate for 24 hours. The Abac10-cyc peptide served as a negative control. The P.a. control was Pseudomonas aeruginosa alone. […] Staining was performed with crystal violet at OD 595 nm.
as §7, with “grZ14s-nvCyc” for “Eqt2Z-cyc”
A biofilm was created by culturing Pseudomonas aeruginosa (ATCC 27853) for 24 hours in a well at 37° C. PhyscoZ-Cyc peptide [Custom Peptide Synthesis; Peptron, Korea] at different concentrations was subsequently added to the well and allowed to incubate for 24 hours. The P.a. control was Pseudomonas aeruginosa alone. […] Staining was performed with crystal violet at OD 595 nm.

[10] = 24-hour biofilm, 24-hour peptide incubation, crystal violet OD 595 nm

| Sequence | Biofilm prevention (%) ([1]; peptide 100 ng/ml) | Biofilm prevention (%) ([2]; peptide 100 ng/ml) | Detachment (%) (100 ng/ml) [3] | Detachment (%) (100 ng/ml) [4] | Detachment (%) (100 ng/ml) [5] | Biofilm prevention (%) [6] [%] | Biofilm prevention (%) ([7]; peptide 10 ng/ml) | Biofilm prevention (%) ([2]; peptide 10 ng/ml) | Biofilm prevention (%) ([7]; peptide 100 ng/ml) | Detachment (%) (100 ng/ml) [8] | Biofilm prevention (%) ([1]; peptide 10 ng/ml) | microorganism detachment ([9]; 2-hour biofilm, 24-hour peptide incubation, crystal violet OD 595 nm) | microorganism detachment ([9]; 2-hour biofilm, overnight peptide incubation) | microorganism detachment [9, 10] | microorganism detachment ([9]; overnight biofilm, overnight peptide incubation) |
| --- | --- | --- | --- | --- | --- | --- | --- | --- | --- | --- | --- | --- | --- | --- | --- |
| CTVNSFDYDWYNVC (disulfide 1-14 (inferred)) [AnoliZ-cyc] | 55 | 95 | 72 | 90 | 72 | 75 | 92 |  |  |  |  |  |  |  |  |
| CRVESFDFDWYNIC (disulfide 1-14 (inferred)) [SalmoZ-cyc] | 55 |  | 73 | 80 | 75 | 80 |  | 90 | 95 |  |  |  |  |  |  |
| CNVHSFDYDWYNVC (disulfide 1-14 (inferred)) [CanisZ-cyc] | 80 | 95 | 45 | 72 |  | 75 | 60 |  |  | 73 |  |  |  |  |  |
| CSELSSFNFDWYNVC (disulfide 1-15 (inferred)) [CionaZ-S-cyc] | 68 | 75 | 42 | 78 |  | 90 |  |  | 52 | 80 |  |  |  |  |  |
| CSRYSSFDYDWYNVC (disulfide 1-15 (inferred)) [XenoZ-S-cyc] | 75 |  | 50 | 30 |  | 65 |  | 57 | 95 | 49 |  |  |  |  |  |
| CRINSFDYDWYNVC (disulfide 1-14 (inferred)) [TetraoZ-cyc] | 25 | 45 | 55 |  | 43 | 52 | 70 |  |  |  |  |  |  |  |  |
| CRVESFNYDWYNVC (disulfide 1-14 (inferred)) [NilotiZ-cyc] | 30 | 90 | 65 | 40 | 65 | 63 |  |  | 87 |  |  |  |  |  |  |
| CTVHSFDYDWYNVC (disulfide 1-14 (inferred)) [CapraZ-cyc] | 25 | 68 | 60 | 65 | 55 | 42 |  |  | 90 |  |  |  |  |  |  |
| CSAPYNFNFYSNWC (disulfide 1-14 (inferred)) [EchoZ-cyc] |  | 90 |  | 65 | 35 | 85 |  |  | 80 | 60 | 80 |  |  |  |  |
| CSVPYDYNWYSNWC (disulfide 1-14 (inferred)) [Eqt2Z-cyc] |  |  |  |  |  |  |  |  |  |  |  | far greater microorganism detachment than in the P.a. control or negative control | far greater microorganism detachment than in the P.a. control or negative control | far greater microorganism detachment than in the P.a. control or negative control | far greater microorganism detachment than in the P.a. control |
| CSVPFDYNLYSNWC [PhyscoZ-cyc] (also: cyclised) |  | 95 |  | 75 | 70 | 65 |  |  |  | 50 | 62 |  |  | far greater microorganism detachment than in the P.a. control |  |
| CSVPFDYNLYSNWC [SelagZ-cyc] (disulfide 1-14 (inferred)) |  | 88 |  | 67 | 35 | 88 |  |  | 80 | 50 | 80 |  |  |  |  |
| CKVNSFDYDWYNVC (disulfide 1-14 (inferred)) [MeleagZ-cyc] | 30 | 82 | 62 | 65 | 80 | 73 |  |  | 95 |  |  |  |  |  |  |

From patent US9700058B2, “Dispersion and detachment of cell aggregates” (priority 2011, dated 2017)
